Experimental data reported in ChEMBL document CHEMBL1201862, “PubChem BioAssay data set” (2004).
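96-well plates; 48 h exposure; 5 concentrations. Endpoints by linear interpolation between flanking doses. Not reached: highest tested concentration assigned. GI50 = concentration required for 50% inhibition of growth.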 Active and inactive are the calls of the source. Rule as the data show it: active = GI50 up to about 1.1 µM and inactive = higher.

Assays:
Test in all cases: NCI-60 cell line screen, 48 h
SF-268 = tested on: SF-268
A498 = tested on: A498
SF-295 = tested on: SF-295
MDA-MB-231 = tested on: MDA-MB-231
MCF7 = tested on: MCF7
OVCAR-5 = tested on: OVCAR-5
K562 = tested on: K562
IGROV-1 = tested on: IGROV-1
OVCAR-4 = tested on: OVCAR-4
CCRF-CEM = tested on: CCRF-CEM
TK-10 = tested on: TK-10
SK-OV-3 = tested on: SK-OV-3
HL-60 = tested on: HL-60
PC-3 = tested on: PC-3
SNB-75 = tested on: SNB-75
A549 = tested on: A549
Hs-578T = tested on: Hs-578T
T47D = tested on: T47D
NCI/ADR-RES = tested on: NCI/ADR-RES
OVCAR-8 = tested on: OVCAR-8

Measured: GI50

O=C(Cc1ccc(Cl)c(Cl)c1)N(CCc1ccc(Cl)c(Cl)c1)CCN1CCCC1
inactive: SF-268 2.15 µM | A498 1.85 µM | SF-295 1.96 µM | MDA-MB-231 1.76 µM | MCF7 1.73 µM | OVCAR-5 1.8 µM | K562 1.87 µM | IGROV-1 1.74 µM | OVCAR-4 2.19 µM | CCRF-CEM 1.31 µM | TK-10 1.81 µM | SK-OV-3 2.69 µM | HL-60 1.42 µM | PC-3 1.83 µM | SNB-75 2.05 µM | A549 2.01 µM | Hs-578T 2.98 µM | T47D 4.06 µM | NCI/ADR-RES 2.04 µM | OVCAR-8 1.93 µM

CCCCCCCCCC/C=C/CC(=O)SCCNC(=O)CCNC(=O)[C@@H](O)C(C)(C)COP(=O)(O)OP(=O)(O)OCC1OC(n2cnc3c(N)ncnc32)C(O)C1OP(=O)(O)O (some centres not stated)
inactive: SF-268 > 10 µM | A498 > 10 µM | SF-295 > 10 µM | MDA-MB-231 > 10 µM | MCF7 > 10 µM | OVCAR-5 > 10 µM | K562 > 10 µM | IGROV-1 > 10 µM | OVCAR-4 > 10 µM | CCRF-CEM > 10 µM | TK-10 > 10 µM | SK-OV-3 > 10 µM | HL-60 > 10 µM | PC-3 > 10 µM | SNB-75 > 10 µM | A549 > 10 µM | Hs-578T > 10 µM | T47D > 10 µM | NCI/ADR-RES > 10 µM | OVCAR-8 > 10 µM

Nc1c(O)c(C(=O)O)cc2ccccc12
inactive: SF-268 42 µM | A498 > 100 µM | SF-295 51.8 µM | MDA-MB-231 15.3 µM | MCF7 11.6 µM | OVCAR-5 18.9 µM | K562 31.8 µM | IGROV-1 > 100 µM | OVCAR-4 22.9 µM | CCRF-CEM 37.8 µM | TK-10 98.4 µM | SK-OV-3 > 100 µM | HL-60 32.7 µM | PC-3 39.1 µM | SNB-75 24.3 µM | A549 45.4 µM | Hs-578T 37 µM | T47D 37 µM | NCI/ADR-RES 32.1 µM | OVCAR-8 44.3 µM

CCOC(=O)Nc1ccc(C)c(NC(=O)OCC)c1
inactive: SF-268 > 100 µM | A498 > 100 µM | SF-295 > 100 µM | MDA-MB-231 > 100 µM | MCF7 > 100 µM | OVCAR-5 > 100 µM | K562 > 100 µM | IGROV-1 55.6 µM | CCRF-CEM > 100 µM | TK-10 > 100 µM | SK-OV-3 > 100 µM | HL-60 > 100 µM | PC-3 > 100 µM | SNB-75 > 100 µM | A549 > 100 µM | Hs-578T > 100 µM | T47D > 100 µM | NCI/ADR-RES > 100 µM | OVCAR-8 > 100 µM

CCOC(=O)Cc1cc(=O)[nH]c(-n2[nH]c(C)c(CCO)c2=O)n1
inactive: SF-268 > 100 µM | A498 > 100 µM | SF-295 > 100 µM | MDA-MB-231 > 100 µM | MCF7 > 100 µM | OVCAR-5 > 100 µM | K562 > 100 µM | IGROV-1 > 100 µM | OVCAR-4 > 100 µM | CCRF-CEM > 100 µM | TK-10 > 100 µM | SK-OV-3 > 100 µM | HL-60 > 100 µM | PC-3 > 100 µM | A549 > 100 µM | Hs-578T > 100 µM | T47D > 100 µM | NCI/ADR-RES > 100 µM | OVCAR-8 > 100 µM

c1sc(NC2=NCCO2)c2c1CCCC2
inactive: A498 > 100 µM | SF-295 > 100 µM | MDA-MB-231 > 100 µM | MCF7 > 100 µM | OVCAR-5 > 100 µM | K562 > 100 µM | IGROV-1 > 100 µM | OVCAR-4 > 100 µM | CCRF-CEM > 100 µM | TK-10 > 100 µM | SK-OV-3 > 100 µM | HL-60 > 100 µM | PC-3 99.8 µM | SNB-75 > 100 µM | A549 > 100 µM | Hs-578T > 100 µM | T47D 88.1 µM | NCI/ADR-RES > 100 µM | OVCAR-8 > 100 µM

C=CCN1CCC(c2cc(C(=O)OCC)[nH]c2-c2cc(C)no2)C1=O (configuration not stated)
inactive: SF-268 > 100 µM | A498 > 100 µM | SF-295 > 100 µM | MDA-MB-231 > 100 µM | MCF7 > 100 µM | OVCAR-5 > 100 µM | K562 > 100 µM | IGROV-1 > 100 µM | OVCAR-4 > 100 µM | CCRF-CEM > 100 µM | SK-OV-3 > 100 µM | HL-60 76.2 µM | PC-3 > 100 µM | SNB-75 94.8 µM | A549 > 100 µM | Hs-578T > 100 µM | T47D > 100 µM | NCI/ADR-RES > 100 µM | OVCAR-8 > 100 µM

O=C1CCC2CCC1C2 (configuration not stated)
inactive: SF-268 > 100 µM | A498 > 100 µM | SF-295 > 100 µM | MDA-MB-231 > 100 µM | MCF7 > 100 µM | OVCAR-5 > 100 µM | K562 > 100 µM | OVCAR-4 > 100 µM | CCRF-CEM > 100 µM | TK-10 > 100 µM | SK-OV-3 > 100 µM | HL-60 > 100 µM | PC-3 > 100 µM | SNB-75 > 100 µM | A549 > 100 µM | Hs-578T > 100 µM | T47D > 100 µM | NCI/ADR-RES > 100 µM | OVCAR-8 > 100 µM

O=c1[nH]c(=O)n(C2CC(O)C(CO)O2)cc1/N=N/NCCCc1ccccc1 (configuration not stated)
inactive: SF-268 > 100 µM | A498 > 100 µM | SF-295 > 100 µM | MDA-MB-231 > 100 µM | MCF7 > 100 µM | OVCAR-5 > 100 µM | IGROV-1 > 100 µM | OVCAR-4 > 100 µM | CCRF-CEM > 100 µM | TK-10 > 100 µM | SK-OV-3 > 100 µM | HL-60 > 100 µM | PC-3 > 100 µM | A549 > 100 µM | Hs-578T > 100 µM | T47D > 100 µM | NCI/ADR-RES > 100 µM | OVCAR-8 > 100 µM

N#CCCN(CCC#N)c1ccc(/C=C2\N=C(c3ccccc3)N(c3ccc(Cl)cc3)C2=O)cc1
inactive: SF-268 > 100 µM | A498 > 100 µM | SF-295 30.3 µM | MDA-MB-231 > 100 µM | MCF7 > 100 µM | OVCAR-5 > 100 µM | K562 48 µM | IGROV-1 > 100 µM | OVCAR-4 > 100 µM | CCRF-CEM > 100 µM | TK-10 > 100 µM | SK-OV-3 > 100 µM | HL-60 > 100 µM | PC-3 > 100 µM | A549 > 100 µM | Hs-578T 20.6 µM | T47D > 100 µM | NCI/ADR-RES > 100 µM | OVCAR-8 > 100 µM
